Values quoted from earlier work in article PMC10985535 (RSC Advances, 2024).

Tested on: CT-DNA

CC[n+]1c(-c2ccccc2)c2cc(N)ccc2c2ccc(N)cc21.[Br-] [EtBr]
Ksv of classical intercalator: 10^7 M^−1
